Source: ChEMBL document CHEMBL5724914, “Linking interpersonal differences in gut microbiota composition and drug biotransformation activity” (2024)

Assays:
[1] = The drug is tested on Z-001 corresponding to mouse gut metagenome with ENA study accession number: PRJEB37062 and ENA sample accession number: ERS12561801 for biotransformation under anaerobic condition. The drug concentrations were measured over 9 timepoints collected between 0 and 24 hours of incubation by liquid-chromatography-coupled mass spectrometry (LC–MS); details: 2 µM
[2] = human gut metagenome, 24 h, 2 µM
[3] = human gut metagenome, 24 h, 2 µM; remark: listed apart in the source
[4] = human gut metagenome, 24 h, 2 µM; remark: listed apart in the source
[5] = The drug is tested on WLS-073 corresponding to human gut metagenome with ENA study accession number: PRJEB37062 and ENA sample accession number: ERS12561749 for biotransformation under anaerobic condition. The drug concentrations were measured over 9 timepoints collected between 0 and 24 hours of incubation by liquid-chromatography-coupled mass spectrometry (LC–MS); details: 2 µM
[6] = The drug is tested on WLS-038 corresponding to human gut metagenome with ENA study accession number: PRJEB37062 and ENA sample accession number: ERS12561745 for biotransformation under anaerobic condition. The drug concentrations were measured over 9 timepoints collected between 0 and 24 hours of incubation by liquid-chromatography-coupled mass spectrometry (LC–MS); details: 2 µM
[7] = The drug is tested on WLS-220 corresponding to human gut metagenome with ENA study accession number: PRJEB37062 and ENA sample accession number: ERS12561769 for biotransformation under anaerobic condition. The drug concentrations were measured over 9 timepoints collected between 0 and 24 hours of incubation by liquid-chromatography-coupled mass spectrometry (LC–MS); details: 2 µM
[8] = The drug is tested on Z-009 corresponding to pig gut metagenome with ENA study accession number: PRJEB37062 and ENA sample accession number: ERS12561809 for biotransformation under anaerobic condition. The drug concentrations were measured over 9 timepoints collected between 0 and 24 hours of incubation by liquid-chromatography-coupled mass spectrometry (LC–MS); details: 2 µM
[9] = human gut metagenome, 24 h, 2 µM; remark: listed apart in the source
[10] = human gut metagenome, 24 h, 2 µM; remark: listed apart in the source
[11] = The drug is tested on WLS-350 corresponding to human gut metagenome with ENA study accession number: PRJEB37062 and ENA sample accession number: ERS12561789 for biotransformation under anaerobic condition. The drug concentrations were measured over 9 timepoints collected between 0 and 24 hours of incubation by liquid-chromatography-coupled mass spectrometry (LC–MS); details: 2 µM
[12] = The drug is tested on Z-010 corresponding to metagenome with ENA study accession number: PRJEB37062 and ENA sample accession number: ERS12561810 for biotransformation under anaerobic condition. The drug concentrations were measured over 9 timepoints collected between 0 and 24 hours of incubation by liquid-chromatography-coupled mass spectrometry (LC–MS); details: 2 µM
[13] = The drug is tested on Z-024 corresponding to pig gut metagenome with ENA study accession number: PRJEB37062 and ENA sample accession number: ERS12561823 for biotransformation under anaerobic condition. The drug concentrations were measured over 9 timepoints collected between 0 and 24 hours of incubation by liquid-chromatography-coupled mass spectrometry (LC–MS); details: 2 µM
[14] = human gut metagenome, 24 h, 2 µM; remark: listed apart in the source
[15] = The drug is tested on WLS-052 corresponding to human gut metagenome with ENA study accession number: PRJEB37062 and ENA sample accession number: ERS12561747 for biotransformation under anaerobic condition. The drug concentrations were measured over 9 timepoints collected between 0 and 24 hours of incubation by liquid-chromatography-coupled mass spectrometry (LC–MS); details: 2 µM
[16] = human gut metagenome, 24 h, 2 µM; remark: listed apart in the source
[17] = The drug is tested on Z-017 corresponding to mouse gut metagenome with ENA study accession number: PRJEB37062 and ENA sample accession number: ERS12561816 for biotransformation under anaerobic condition. The drug concentrations were measured over 9 timepoints collected between 0 and 24 hours of incubation by liquid-chromatography-coupled mass spectrometry (LC–MS); details: 2 µM
[18] = The drug is tested on WLS-086 corresponding to human gut metagenome with ENA study accession number: PRJEB37062 and ENA sample accession number: ERS12561752 for biotransformation under anaerobic condition. The drug concentrations were measured over 9 timepoints collected between 0 and 24 hours of incubation by liquid-chromatography-coupled mass spectrometry (LC–MS); details: 2 µM
[19] = human gut metagenome, 24 h, 2 µM; remark: listed apart in the source
[20] = human gut metagenome, 24 h, 2 µM; remark: listed apart in the source

Measured: Bacterial Biotransformation
Note: call rule not given here.

NC(=O)N1c2ccccc2CC(=O)c2ccccc21 [OXCARBAZEPINE]
Compound metabolized: [4] | [8] | [11] | [12] | [13]
Compound NOT metabolized: all other assays above

CCN(CC)CC#CCOC(=O)C(O)(c1ccccc1)C1CCCCC1.Cl (stereo not given) [OXYBUTYNIN CHLORIDE]
Compound NOT metabolized: [5] | [9] | [10] | [17]
Compound metabolized: all other assays above

Fc1ccc([C@@H]2CCNC[C@H]2COc2ccc3c(c2)OCO3)cc1 [PAROXETINE]
Compound NOT metabolized: [1] | [2] | [3] | [5] | [9] | [10] | [15] | [17]
Compound metabolized: all other assays above

O=c1[nH]c2ccccc2n1C1CCN(CCCC(c2ccc(F)cc2)c2ccc(F)cc2)CC1 [PIMOZIDE]
Compound NOT metabolized: [2] | [4] | [9] | [10] | [19]
Compound metabolized: all other assays above

COc1cc2nc(N3CCN(C(=O)c4ccco4)CC3)nc(N)c2cc1OC [PRAZOSIN]
Compound metabolized: [5] | [7] | [14] | [16] | [18] | [20]
Compound NOT metabolized: all other assays above

CS(=O)(=O)O.OC(CCN1CCCCC1)(c1ccccc1)c1ccccc1 [PRIDINOL METHANESULFONATE]
Compound metabolized: [7] | [10] | [14] | [18] | [20]
Compound NOT metabolized: all other assays above
